Like-named read-outs stand apart in the source and are kept apart here.
Legend:
[1] = test system: PC-9 cells (EGFR Ex19Del); experiment: Potency Assay: pERK (SOS1 pERK IC50 Assay, AlphaLISA SureFire Ultra p-ERK1/2); format: cell-based; conditions: Homo sapiens, read-out: SOS1 pERK IC50
Procedure: The purpose of this assay is to measure the ability of test compounds to inhibit SOS1 function in cells. SOS1 activates RAS proteins by catalyzing the conversion of RAS GDP to RAS GTP in response to receptor tyrosine kinase activation. […] The procedure described below measures the level of cellular pERK in response to test compounds in PC-9 cells (EGFR Ex19Del).
PC-9 cells were grown and maintained using media and procedures recommended by the ATCC. On the day prior to compound addition, cells were plated in 384-well cell culture plates (40 μL/well) and grown overnight in a 37° C., 5% CO2 incubator. Test compounds were prepared in 10, 3-fold dilutions in DMSO, with a top concentration of 10 mM. On the day of the assay, 40 nL of test compound was added to each well of cell culture plate using an Echo550 liquid handler (LabCyte). Concentrations of test compound were tested in duplicate with highest test concentration being 10 μM. After compound addition, cells were incubated for 1 hour at 37° C., 5% CO2. Following incubation, culture medium was removed and cells were washed once with phosphate buffered saline.
Cellular pERK level was determined using the AlphaLISA SureFire Ultra p-ERK1/2 Assay Kit (PerkinElmer). Cells were lysed in 25 μL lysis buffer, with shaking at 600 RPM at room temperature for 15 minutes. Lysate (10 μL) was transferred to a 384-well Opti-plate (PerkinElmer) and 5 μL acceptor mix was added. The plate was centrifuged at 1000 RPM for 1 minute, and incubated in the dark for 2 hours. Following this incubation, 5 μL of donor mix was added, the plate was sealed and centrifuged at 1000 RPM for 1 minute, and the mixture was incubated for 2 hours at room temperature. Signal was read on an Envision plate reader (PerkinElmer) using standard AlphaLISA settings. Analysis of raw data was carried out in Excel (Microsoft) and Prism (GraphPad). Signal was plotted vs. the decadal logarithm of compound concentration, and IC50 was determined by fitting a 4-parameter sigmoidal concentration response model.

[2] = target: T1, SOS1 catalytic domain (residues 564-1049) (Homo sapiens, UniProt Q07889); experiment: Mode of Action Assay: inhibition of SOS1 nucleotide exchange activity (SOS1 TR-FRET IC50 Assay)
T1 sequence (Q07889 564-1049): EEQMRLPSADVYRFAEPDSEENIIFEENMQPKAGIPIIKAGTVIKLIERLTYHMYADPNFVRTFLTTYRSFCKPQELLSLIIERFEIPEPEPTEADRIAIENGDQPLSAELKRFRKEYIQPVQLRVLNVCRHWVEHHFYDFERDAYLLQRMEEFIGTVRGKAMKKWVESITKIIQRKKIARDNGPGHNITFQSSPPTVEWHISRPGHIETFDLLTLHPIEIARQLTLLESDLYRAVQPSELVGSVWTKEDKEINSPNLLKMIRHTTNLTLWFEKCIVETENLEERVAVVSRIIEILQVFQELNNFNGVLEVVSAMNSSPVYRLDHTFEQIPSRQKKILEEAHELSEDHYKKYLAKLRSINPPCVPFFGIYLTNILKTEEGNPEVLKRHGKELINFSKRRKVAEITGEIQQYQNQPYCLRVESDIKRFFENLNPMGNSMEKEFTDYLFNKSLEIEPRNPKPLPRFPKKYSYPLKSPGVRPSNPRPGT

[3] = PC-9 cells (EGFR Ex19Del), 1 hour incubation, AlphaLISA p-ERK1/2

| SMILES | IC50 [1, 3] [nM] | IC50 [2] [nM] | IC50 ([1]; PC-9, 1 h) [nM] |
| --- | --- | --- | --- |
| C[C@@H](Nc1nc(Cl)nc2c1CN(C(=O)N1CCNC3CC31)C2)c1cccc(C(F)(F)F)c1 (some centres unmarked) [Example 379] | < 1000 | < 1000 |  |
| CC(Nc1nc(Cl)nc2c1CN(C(=O)N1CCOCC1)C2)c1cccc(S(N)(=O)=O)c1 (centres unmarked) [Example 535, 3-[1-[[2-chloro-6-(morpholine-4-carbonyl)-5,7-dihydropyrrolo[3,4-d]pyrimidin-4-yl]amino]ethyl]benzenesulfonamide] |  | > 1000 | > 1000 |
| C[C@@H](Nc1nc(Cl)nc2c1CN(C(=O)N1CCOCC1)C2)c1cnc(C(F)(F)F)s1 [Example 474, 2-chloro-6-(morpholine-4-carbonyl)-N-[(1R)-1-[2-(trifluoromethyl)-1,3-thiazol-5-yl]ethyl]-5H,6H,7H-pyrrolo[3,4-d]pyrimidin-4-amine] | > 1000 | > 1000 |  |
| COc1c(C(F)F)cccc1C(C)Nc1nc(Cl)nc2c1CN(C(=O)N1CCOCC1)C2 (centres unmarked) [Example 494] | > 1000 | > 1000 |  |
| COC1COCCC1CC(=O)N1Cc2nc(Cl)nc(N[C@H](C)c3cc(N)cc(C(F)(F)F)c3)c2C1 (some centres unmarked) [Example 258] | < 1000 | < 1000 |  |
| COc1cccc(C(=O)N2CCc3nc(Cl)nc(N[C@H](C)c4cc(N)cc(C(F)(F)F)c4)c3C2)n1 [Example 242] | > 1000 | < 1000 |  |
| COCC1(C(=O)N2CCc3nc(Cl)nc(N[C@H](C)c4cc(N)cc(C(F)(F)F)c4)c3C2)CCC1 [Example 204] | > 1000 | < 1000 |  |
| CC(Nc1nc(Cl)nc2c1CN(C(=O)N1CCOCC1)C2)c1cccc(S(F)(F)(F)(F)F)c1 (centres unmarked) [Example 462, [2-chloro-4-[1-[3-(pentafluoro-sulfanyl)phenyl]ethylamino]-5,7-dihydropyrrolo[3,4-d]pyrimidin-6-yl]-morpholino-methanone] | > 1000 | > 1000 |  |
| CO[C@H]1C[C@H](C(=O)N2CCc3nc(Cl)nc(N[C@H](C)c4cc(N)cc(C(F)(F)F)c4)c3C2)C1 [Example 190] | > 1000 | > 1000 |  |
| C[C@@H](Nc1nc(Cl)nc2c1CN(C(=O)N1CCOCC1)C2)c1cccc(N2CC(O)C2)c1 [Example 518, [2-chloro-4-[[(1R)-1-[3-(3-hydroxyazetidin-1-yl)phenyl]ethyl]amino]-5,7-dihydropyrrolo[3,4-d]pyrimidin-6-yl]-morpholino-methanone] | > 1000 | < 1000 |  |
| C[C@@H](Nc1ncnc2c1CN(CC1CCOC1)C2)c1cc(N)cc(C(F)(F)F)c1 (stereo partly drawn) [Example 54, N-[(1R)-1-[3-amino-5-(trifluoromethyl)phenyl]ethyl]-6-(tetrahydrofuran-3-ylmethyl)-5,7-dihydropyrrolo[3,4-d]pyrimidin-4-amine] | > 1000 | > 1000 |  |
| CC(Nc1nc(Cl)nc2c1CN(C(=O)N1CCOCC1)C2)c1cccc(CCO)c1 (centres unmarked) [Example 501, 2-[3-(1-{[2-chloro-6-(morpholine-4-carbonyl)-5H,6H,7H-pyrrolo[3,4-d]pyrimidin-4-yl]amino}ethyl)phenyl]ethan-1-ol] | > 1000 | < 1000 |  |
| COC12CCC(C(=O)N3CCc4nc(Cl)nc(N[C@H](C)c5cc(N)cc(C(F)(F)F)c5)c4C3)(CC1)C2 [Example 196] | > 1000 | > 1000 |  |
| C[C@@H](Nc1nc(Cl)nc2c1CN(C(=O)N1CCOc3ccncc31)C2)c1cccc(C(F)(F)F)c1 [Example 373] |  | < 1000 |  |
| C[C@@H](Nc1nc(Cl)nc2c1CN(C(=O)N1CCOCC1)C2)c1cc(F)cc(C(F)(F)F)c1 [Example 511, 2-chloro-N-[(1R)-1-[3-fluoro-5-(trifluoromethyl)phenyl]ethyl]-6-(morpholine-4-carbonyl)-5H,6H,7H-pyrrolo[3,4-d]pyrimidin-4-amine] |  | > 1000 |  |
| C[C@@H](Nc1nc(Cl)nc2c1CN(C(=O)N1CCOCC1)C2)c1cccc(C(F)CO)c1 (stereo partly drawn) [Example 519, [2-chloro-4-[[(1R)-1-[3-(1-fluoro-2-hydroxy-ethyl)phenyl]ethyl]amino]-5,7-dihydropyrrolo[3,4-d]pyrimidin-6-yl]-morpholino-methanone] | > 1000 | < 1000 |  |
| C[C@@H](Nc1nc(Cl)nc2c1CN([C@H]1CC[C@H](C(=O)N(C)C)CC1)C2)c1cc(N)cc(C(F)(F)F)c1 [Example 57, 4-[4-[[(1R)-1-[3-amino-5-(trifluoromethyl)phenyl]ethyl]amino]-2-chloro-5,7-dihydropyrrolo[3,4-d]pyrimidin-6-yl]-N,N-dimethyl-cyclohexanecarboxamide] | > 1000 | > 1000 |  |

| SMILES | IC50 [1, 3] [nM] | IC50 [2] [nM] | IC50 ([1]; PC-9, 1 h) [nM] |
| --- | --- | --- | --- |
| C[C@@H](Nc1nc(Cl)nc2c1CC1(CC2)OCCO1)c1cc(N)cc(C(F)(F)F)c1 [Example 514, N-[(1R)-1-[3-amino-5-(trifluoromethyl)phenyl]ethyl]-2′-chloro-7′,8′-dihydro-5′H-spiro[1,3-dioxolane-2,6′-quinazoline]-4′-amine] |  | > 1000 |  |
| C[C@@H](Nc1nc(Cl)nc2c1CN(C(=O)N1CCOC(c3cccnc3)C1)C2)c1cc(N)cc(C(F)(F)F)c1 (some centres unmarked) [Example 151] | < 1000 | < 1000 |  |
| CC(Nc1nc(Cl)nc2c1CN(C(=O)N1CCOCC1)C2)c1cccc(C(F)(F)CO)c1Cl (centres unmarked) [Example 506, 2-[2-chloro-3-(1-{[2-chloro-6-(morpholine-4-carbonyl)-5H,6H,7H-pyrrolo[3,4-d]pyrimidin-4-yl]amino}ethyl)phenyl]-2,2-difluoro-ethan-1-ol] | < 1000 | < 1000 |  |
| COC1(C(=O)N2CCc3nc(Cl)nc(N[C@H](C)c4cc(N)cc(C(F)(F)F)c4)c3C2)CCC1 [Example 203] | > 1000 | > 1000 |  |
| C[C@@H](Nc1nc(Cl)nc2c1CN(C(=O)[C@@]13CCC[C@@H]1OCC3)CC2)c1cc(N)cc(C(F)(F)F)c1 [Example 216] | > 1000 | > 1000 |  |
| C[C@@H](Nc1nc(Cl)nc2c1CN(C(=O)c1cccc(C(F)(F)F)n1)CC2)c1cc(N)cc(C(F)(F)F)c1 [Example 251] | > 1000 |  |  |
| C[C@@H](Nc1nc(Cl)nc2c1CN(C(=O)C1(c3ncccn3)CC1)CC2)c1cc(N)cc(C(F)(F)F)c1 [Example 191] |  | > 1000 |  |
| COC1(C(=O)N2CCc3nc(Cl)nc(N[C@H](C)c4cc(N)cc(C(F)(F)F)c4)c3C2)CCOC1 (some centres unmarked) [Example 198] |  | > 1000 |  |
| C[C@@H](Nc1nc(Cl)nc2c1CN(S(=O)(=O)c1ccccn1)CC2)c1cc(N)cc(C(F)(F)F)c1 [Example 459] | < 1000 |  |  |
| COc1ccc(C(=O)N2CCc3nc(Cl)nc(N[C@H](C)c4cc(N)cc(C(F)(F)F)c4)c3C2)nc1OC [Example 244] | > 1000 |  |  |
| Cc1cc([C@@H](C)Nc2nc(Cl)nc3c2CN(C(=O)N2CCOCC2)C3)cc(C(F)(F)F)c1 [Example 515, 2-chloro-N-[(1R)-1-[3-methyl-5-(trifluoromethyl)phenyl]ethyl]-6-(morpholine-4-carbonyl)-5H,6H,7H-pyrrolo[3,4-d]pyrimidin-4-amine] |  | > 1000 |  |
| COc1ccc(C2(C(=O)N3CCc4nc(Cl)nc(N[C@H](C)c5cc(N)cc(C(F)(F)F)c5)c4C3)COC2)cc1 [Example 192] |  | > 1000 |  |
| C[C@@H](Nc1nc(Cl)nc2c1CN(C(=O)c1ncccc1C(F)(F)F)CC2)c1cc(N)cc(C(F)(F)F)c1 [Example 253] |  | > 1000 |  |
| C[C@@H](Nc1nc(Cl)nc2c1CN(C(=O)C1(N3CCOCC3)CCC1)CC2)c1cc(N)cc(C(F)(F)F)c1 [Example 207] |  | > 1000 |  |
| C[C@@H](Nc1nc(Cl)nc2c1CCN(CC1CCOC1)CC2)c1cc(N)cc(C(F)(F)F)c1 (stereo partly drawn) [Example 113, N-[(1R)-1-[3-amino-5-(trifluoromethyl)phenyl]ethyl]-2-chloro-7-(oxolan-3-ylmethyl)-5H,6H,7H,8H,9H-pyrimido[4,5-d]aze-pin-4-amine] |  | > 1000 |  |
| C[C@@H](Nc1nc(Cl)nc2c1CN(C(=O)[C@]13CCC[C@H]1C3(F)F)CC2)c1cc(N)cc(C(F)(F)F)c1 [Example 217] |  | > 1000 |  |
| C[C@@H](Nc1nc(Cl)nc2c1CN(C(=O)C1CN(C)CCO1)C2)c1cccc(C(F)(F)F)c1 (some centres unmarked) [Example 277] | > 1000 |  |  |

— patent publication US20230096028A1, “BICYCLIC HETEROCYCLYL COMPOUNDS AND USES THEREOF” (Revolution Medicines, Inc., priority 2019, published 2023)
